Measurements: article PMC13192270, “RhlR quorum-sensing receptor ligand sensitivity regulates the differential expression of phenazine genes in Pseudomonas aeruginosa” (Journal of Bacteriology, 2026)

System: ΔrhlI strain expressing RhlR A44M
Test: RNA-seq gene expression
Type: cell-based, Pseudomonas aeruginosa
Set-up: opmD Expression value / mexI Expression value / mexH Expression value / mexG Expression value / lasB Expression value / rhlA Expression value / rhlB Expression value / rhlR Expression value / lecB Expression value / fhp Expression value / chiC Expression value / hcnA Expression value / mvfR Expression value / katB Expression value / norC Expression value / norB Expression value / katA Expression value: unit not given here
Conditions: 2 µM C4HSL
Description: To determine the effects of hypo- and hypersensitivity to C4HSL on RhlR-dependent transcription activation in P. aeruginosa, we performed RNA-seq on ΔrhlI strains expressing WT RhlR, RhlR T58L, and RhlR A44M in the presence of 2 µM C4HSL. We chose this approach to better control the levels of C4HSL across samples. All gene expression analyses were done relative to a ΔrhlI strain without exogenous supplementation of AHL. Thus, we examined the total increase in C4HSL-dependent gene regulation. We observed increased rhlA RNA levels in strains expressing WT RhlR and the RhlR T58L variant compared to ΔrhlI without C4HSL or a strain expressing the RhlR A44M variant (Table 2; Table S1). […] To corroborate our RNA-seq data, we built an rhlA promoter fusion to mScarlet and assayed reporter levels in the same genetic backgrounds as our transcriptomic experiment (Fig. S7D). Strains expressing hypersensitive RhlR variants produced similar levels of fluorescent signal relative to the WT strain, while a strain expressing a hyposensitive RhlR variant had diminished levels of fluorescent reporter (Fig. S7D).
A total of […] of overnight cultures was back diluted 1:100 in 20 mL of fresh LB media and incubated for 5 h at 37°C with shaking. Cells were harvested by centrifugation, and pellets were frozen until RNA extraction. RNA was extracted using the Invitrogen PureLink RNA Mini Kit. Pellets were resuspended in 100 µL lysozyme solution containing 10 mM Tris-HCl pH 8.0, 0.1 mM EDTA, and 1 mg/mL lysozyme. Five microliters of 1% SDS was added, and the solution was mixed with a vortex and incubated at room temperature for 5 min. A total of 350 µL lysis buffer (Invitrogen) was added with 10 µL 2-mercaptoethanol for each 1 mL of lysis buffer and vortexed. Cells were lysed by bead beating (BioSpec 0.1 MM Zirconia/Silica Beads) for two rounds of 50 s. Lysed cells were transferred to fresh microcentrifuge tubes with 250 µL of 100% ethanol and mixed with a vortex. Samples were spun in spin cartridges (Invitrogen) at 12,000 × g for 15 s at room temperature, and the flow-through was discarded. A total of 700 µL Wash Buffer I (Invitrogen) was added and spun at 12,000 × g for 15 s at room temperature, and the flow-through was discarded. A total of 500 µL Wash Buffer II (Invitrogen) with ethanol was added and centrifuged for 12,000 × g for 15 s at room temperature; the flow-through was discarded, and RNA samples were washed again. Cells were spun at 12,000 × g for 1 min at room temperature to dry the membrane with the bound RNA. A total of 50 µL RNAse-free water was added to the center of the spin cartridge, incubated at room temperature for 1 min, and centrifuged for 2 min at ≥12,000 × g at room temperature. Extracted RNA was then frozen at −80°C until further use.
Bulk RNA was sent to SeqCenter (Pittsburgh, PA) where it was processed for paired-end Illumina sequencing via rRNA depletion using Ribo-Zero Plus (Illumina). Fastq files generated by SeqCenter were processed using Rockhopper with default settings ([61][–][63]). Briefly, fastq files were aligned to the genome of Pseudomonas aeruginosa UCBPP-PA14. The reads were subsequently normalized using upper-quartile normalization, and transcript abundance was determined by reads per kilobase per million mapped reads. Differential gene expression analysis was conducted using a negative binomial distribution model, outputting a P-value for each transcript. The P-values were then corrected for false discovery using the Benjamini-Hochberg procedure, resulting in the q-values reported here (Table S2). SignalMap v2.0 (NimbleGen Systems) was used to visualize read counts for phzABCDEFG1/2, phzH, phzM, and phzS (Fig. 5). Aligned sequences generated in Rockhopper were converted to GFF files, and genes of interest were isolated into unique GFF files ([37]).

For `CCCC(=O)N[C@H]1CCOC1=O` [C4HSL, N-butyryl-L-homoserine lactone], the “chiC Expression value” was 132,918.5, the “fhp Expression value” was 8,878 and the “hcnA Expression value” was 38,430. For the same molecule, the “katA Expression value” was 3,887,333, the “katB Expression value” was 13,211.5 and the “lasB Expression value” was 6,614,384. For the same molecule, the “lecB Expression value” was 208,420, the “mexG Expression value” was 4,729.5 and the “mexH Expression value” was 11,247.5. For the same molecule, the “mexI Expression value” was 15,683.5, the “mvfR Expression value” was 214,018 and the “norB Expression value” was 28,591. For the same molecule, the “norC Expression value” was 12,922.5, the “opmD Expression value” was 6,012 and the “phnA Expression value” was 2,884,404. The “phnB Expression value” was 694,083, the “phzA1 Expression value” was 8,661 and the “phzA2 Expression value” was 11,533. The “phzB1 Expression value” was 163,479, the “phzB2 Expression value” was 178,704.5 and the “phzC1 Expression value” was 135,611.5. The “phzC2 Expression value” was 156,044, the “phzD1 Expression value” was 153,729 and the “phzD2 Expression value” was 137,242.5. For the same molecule, the “phzE1 Expression value” was 282,659.5, the “phzE2 Expression value” was 202,642.5 and the “phzF1 Expression value” was 137,969. The “phzF2 Expression value” was 139,410.5, the “phzG1 Expression value” was 118,586 and the “phzG2 Expression value” was 88,845. The “phzM Expression value” was 93,038, the “phzS Expression value” was 303,377 and the “pqsA Expression value” was 3,743,059.5. The “pqsB Expression value” was 5,794,985, the “pqsC Expression value” was 5,614,134 and the “pqsD Expression value” was 6,055,112.5. The “pqsE Expression value” was 3,188,208, the “rhlA Expression value” was 200,100.5 and the “rhlB Expression value” was 165,369.5. For the same molecule, the “rhlR Expression value” was 581,659, the “chiC Log2fold change” value (vs ΔrhlI without AHL) was −0.05904 and the “fhp Log2fold change” value (vs ΔrhlI without AHL) was 0.2001. For the same molecule, the “hcnA Log2fold change” value (vs ΔrhlI without AHL) was 0.2595, the “katA Log2fold change” value (vs ΔrhlI without AHL) was 0.3253 and the “katB Log2fold change” value (vs ΔrhlI without AHL) was 0.1017. For the same molecule, the “lasB Log2fold change” value (vs ΔrhlI without AHL) was 1.048, the “lecB Log2fold change” value (vs ΔrhlI without AHL) was −0.7762 and the “mexG Log2fold change” value (vs ΔrhlI without AHL) was 0.2215. For the same molecule, the “mexH Log2fold change” value (vs ΔrhlI without AHL) was 0.2256, the “mexI Log2fold change” value (vs ΔrhlI without AHL) was −0.1584 and the “mvfR Log2fold change” value (vs ΔrhlI without AHL) was −0.1373. For the same molecule, the “norB Log2fold change” value (vs ΔrhlI without AHL) was −0.5108, the “norC Log2fold change” value (vs ΔrhlI without AHL) was −0.6332 and the “opmD Log2fold change” value (vs ΔrhlI without AHL) was −0.2426. For the same molecule, the “phnA Log2fold change” value (vs ΔrhlI without AHL) was 0.3171, the “phnB Log2fold change” value (vs ΔrhlI without AHL) was 0.2753 and the “phzA1 Log2fold change” value (vs ΔrhlI without AHL) was −1.792. For the same molecule, the “phzA2 Log2fold change” value (vs ΔrhlI without AHL) was 0.1326, the “phzB1 Log2fold change” value (vs ΔrhlI without AHL) was −1.046 and the “phzB2 Log2fold change” value (vs ΔrhlI without AHL) was −0.2412. For the same molecule, the “phzC1 Log2fold change” value (vs ΔrhlI without AHL) was −0.6965, the “phzC2 Log2fold change” value (vs ΔrhlI without AHL) was −0.2301 and the “phzD1 Log2fold change” value (vs ΔrhlI without AHL) was −0.5047. For the same molecule, the “phzD2 Log2fold change” value (vs ΔrhlI without AHL) was −0.458, the “phzE1 Log2fold change” value (vs ΔrhlI without AHL) was −0.5209 and the “phzE2 Log2fold change” value (vs ΔrhlI without AHL) was −0.574. For the same molecule, the “phzF1 Log2fold change” value (vs ΔrhlI without AHL) was −0.731, the “phzF2 Log2fold change” value (vs ΔrhlI without AHL) was −0.7224 and the “phzG1 Log2fold change” value (vs ΔrhlI without AHL) was −0.7812. For the same molecule, the “phzG2 Log2fold change” value (vs ΔrhlI without AHL) was −0.325, the “phzM Log2fold change” value (vs ΔrhlI without AHL) was −1.898 and the “phzS Log2fold change” value (vs ΔrhlI without AHL) was −1.303. The “pqsA Log2fold change” value (vs ΔrhlI without AHL) was 0.5012, the “pqsB Log2fold change” value (vs ΔrhlI without AHL) was 0.621 and the “pqsC Log2fold change” value (vs ΔrhlI without AHL) was 0.5508. For the same molecule, the “pqsD Log2fold change” value (vs ΔrhlI without AHL) was 0.4552, the “pqsE Log2fold change” value (vs ΔrhlI without AHL) was 0.3409 and the “rhlA Log2fold change” value (vs ΔrhlI without AHL) was −0.336. For the same molecule, the “rhlB Log2fold change” value (vs ΔrhlI without AHL) was 0.3232 and the “rhlR Log2fold change” value (vs ΔrhlI without AHL) was −0.1335.
